Laboratory results from ChEMBL document CHEMBL1201862, “PubChem BioAssay data set” (2004).
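Tested at 5 concentrations; 48 h exposure; 96-well plates; endpoints linearly interpolated, else capped at highest concentration. Abbreviation: GI50, concentration required for 50% inhibition of growth.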 Active and inactive are the calls of the source. Cut-off read from the data, not from the text of the source: active = GI50 up to about 1.1 µM and inactive = higher.

Assays:
Test in all cases: growth of human tumour cells (NCI), 48 h
A498 = system: A498
ACHN = system: ACHN
CAKI-1 = system: CAKI-1
CCRF-CEM = system: CCRF-CEM
DMS-114 = system: DMS-114
HCC 2998 = system: HCC 2998
M14 = system: M14
MOLT-4 = system: MOLT-4
NCI-H23 = system: NCI-H23
OVCAR-3 = system: OVCAR-3
SN12C = system: SN12C
SNB-19 = system: SNB-19
SNB-75 = system: SNB-75
SW-620 = system: SW-620
UACC-257 = system: UACC-257
UACC-62 = system: UACC-62

Measured: GI50

CCCc1nc(NC#N)nc(C(=O)NC23CC4CC(CC(C4)C2)C3)c1C
inactive: A498 > 100 µM | ACHN > 100 µM | CAKI-1 > 100 µM | CCRF-CEM > 100 µM | DMS-114 > 100 µM | HCC 2998 > 100 µM | M14 > 100 µM | MOLT-4 > 100 µM | NCI-H23 > 100 µM | OVCAR-3 > 100 µM | SN12C > 100 µM | SNB-19 > 100 µM | SNB-75 > 100 µM | SW-620 > 100 µM | UACC-257 > 100 µM | UACC-62 > 100 µM

C=C(C)C(=O)OC1C/C(CO)=C\C(O)C/C(C)=C/C2OC(=O)C(=C)C21 (configuration not stated)
inactive: ACHN 21.3 µM | CAKI-1 22.8 µM | CCRF-CEM 8.65 µM | DMS-114 23.7 µM | HCC 2998 > 10 µM | M14 17.7 µM | MOLT-4 21.3 µM | NCI-H23 > 10 µM | OVCAR-3 25.1 µM | SN12C 20 µM | SNB-19 > 100 µM | SNB-75 32.4 µM | SW-620 16.7 µM | UACC-62 19.9 µM

O=c1cccccc1NCCOCCNc1cccccc1=O
inactive: A498 > 100 µM | ACHN > 100 µM | CAKI-1 > 100 µM | CCRF-CEM > 100 µM | DMS-114 > 100 µM | HCC 2998 > 100 µM | M14 > 100 µM | MOLT-4 > 100 µM | NCI-H23 > 100 µM | OVCAR-3 > 100 µM | SN12C > 100 µM | SNB-19 > 100 µM | SNB-75 16.9 µM | SW-620 > 100 µM | UACC-257 > 100 µM | UACC-62 > 100 µM

COC(=O)c1sc(C(=O)OC)c2c1C[S+]([O-])C2
inactive: A498 > 100 µM | CAKI-1 > 100 µM | CCRF-CEM > 100 µM | DMS-114 > 100 µM | HCC 2998 > 100 µM | M14 > 100 µM | MOLT-4 > 100 µM | NCI-H23 > 100 µM | OVCAR-3 > 100 µM | SNB-19 > 100 µM | SNB-75 > 100 µM | SW-620 > 100 µM | UACC-257 > 100 µM | UACC-62 > 100 µM

CCCCCCCC(=O)OC(COC(=O)Cc1ccccc1)COC(=O)C(C)(C)C (configuration not stated)
inactive: A498 > 100 µM | ACHN > 100 µM | CAKI-1 > 100 µM | CCRF-CEM > 100 µM | DMS-114 > 100 µM | HCC 2998 > 100 µM | M14 > 100 µM | MOLT-4 71.9 µM | NCI-H23 > 100 µM | OVCAR-3 > 100 µM | SN12C > 100 µM | SNB-19 > 100 µM | SW-620 > 100 µM | UACC-62 > 100 µM

Cc1ccc2nc(/C(=C/c3ccc(/C=C(\NC(=O)c4ccccc4)c4nc5ccc(C)cc5[nH]4)c(C)c3)NC(=O)c3ccccc3)[nH]c2c1
active: MOLT-4 0.383 µM
inactive: A498 11.4 µM | ACHN 8.45 µM | CAKI-1 35.2 µM | CCRF-CEM 3.02 µM | DMS-114 7.57 µM | M14 23 µM | NCI-H23 19.7 µM | OVCAR-3 6.19 µM | SN12C 5.5 µM | SNB-19 31.2 µM | SNB-75 7.08 µM | SW-620 5.92 µM | UACC-62 1.14 µM

CN(C)CCC1(C2=CCCC2)CC/C(=C\c2ccc3c(c2)OCO3)C1=O (configuration not stated)
inactive: A498 12.2 µM | ACHN 16.1 µM | CCRF-CEM 16 µM | DMS-114 14.8 µM | HCC 2998 15.8 µM | M14 14.7 µM | MOLT-4 12.3 µM | NCI-H23 18.4 µM | OVCAR-3 15.8 µM | SN12C 14.5 µM | SNB-19 18.2 µM | SW-620 15.8 µM | UACC-257 15.5 µM | UACC-62 21.5 µM
